Assay results: patent US7112589B2, “Cysteine protease inhibitors with 2-cyano-4-amino-pyrimidine structure and cathepsin k inhibitory activity for the treatment of inflammations and other diseases” (Novartis AG, priority 2001, dated 2006)
pIC50: −log10 of the molar value.

Biological target: T1, recombinant human cathepsin K (Homo sapiens, UniProt P43235)
T1 sequence (P43235 115-329): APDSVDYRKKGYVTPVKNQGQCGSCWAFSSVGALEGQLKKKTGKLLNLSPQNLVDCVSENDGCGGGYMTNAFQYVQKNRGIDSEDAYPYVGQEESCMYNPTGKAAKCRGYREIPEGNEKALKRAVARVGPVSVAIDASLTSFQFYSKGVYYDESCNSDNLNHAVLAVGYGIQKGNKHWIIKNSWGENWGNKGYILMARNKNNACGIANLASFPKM
Experiment: in vitro inhibition of recombinant human cathepsin K (Z-Phe-Arg-AMCA fluorescence assay)
Format: biochemical
Conditions: recombinant human cathepsin K 0.16 nM, Z-Phe-Arg-AMCA substrate, pH 7.0, 30 min preincubation, 30 min incubation; read-out: IC50s for inhibition of human cathepsin K
Experimental: The in vitro assay is carried out as follows:
The assay is performed in 96 well microtiter plates at ambient temperature using recombinant human cathepsin K. Inhibition of cathepsin K is assayed at a constant enzyme (0.16 nM) and substrate concentration ([…] Z-Phe-Arg-AMCA-Peptide Institute Inc. Osaka, Japan) in 100 mM sodium phosphate buffer, pH 7.0, containing 2 mM dithiothreitol, 20 mM Tween 80 and 1 mM EDTA. Cathepsin K is preincubated with the inhibitors for 30 min, and the reaction is initiated by the addition of substrate. After 30 min incubation the reaction is stopped by the addition of E-64 (2 mM), and fluorescence intensity is read on a multi-well plate reader at excitation and emission wavelengths of 360 and 460 nm, respectively.

Row | SMILES | pIC50
1 | CN1CCN(Cc2ccc(C(=O)NCc3cnc(C#N)nc3NCC(C)(C)C)cc2)CC1 [Example I-22, N-[2-Cyano-4-(2,2-dimethyl-propylamino)-pyrimidin-5-ylmethyl]-4-(4-methyl-piperazin-1-ylmethyl)-benzamide] | 8.52
2 | COCCN1CCC(Cc2ccc(C(=O)NCc3cnc(C#N)nc3NCC(C)(C)C)cc2)CC1 [Example I-23, N-[2-Cyano-4-(2,2-dimethyl-propylamino)-pyrimidin-5-ylmethyl]-4-[1-(2-methoxy-ethyl)-piperidin-4-ylmethyl]-benzamide] | 8.82
